Data from ChEMBL document CHEMBL1157906, “Imidazoacridin-6-ones as novel inhibitors of the quinone oxidoreductase NQO2” (Bioorg Med Chem Lett, 2010).

Assays:
[1] = target: T1, Ribosyldihydronicotinamide dehydrogenase [quinone] (Homo sapiens, UniProt P16083); experiment: Inhibition of human recombinant NQO2 assessed as reduction of DCPIP by spectrophotometry
T1 sequence (P16083 whole entry): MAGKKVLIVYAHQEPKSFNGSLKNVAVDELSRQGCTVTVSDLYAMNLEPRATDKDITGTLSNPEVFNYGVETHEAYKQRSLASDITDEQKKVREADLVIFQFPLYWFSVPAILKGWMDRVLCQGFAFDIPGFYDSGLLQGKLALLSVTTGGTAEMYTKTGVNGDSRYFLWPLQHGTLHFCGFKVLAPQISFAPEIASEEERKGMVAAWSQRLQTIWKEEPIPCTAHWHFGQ

HCT-116 = experiment: Toxicity in human HCT116 cells after 96 hrs by MTT assay; assay type: functional
Nucleic Acid = experiment: Binding affinity to calf thymus DNA assessed as change in melting temperature at 10 uM relative to control; assay type: nucleic-acid assay; conditions: Bos taurus

SMILES	IC50 [1] [nM]	Activity (HCT-116) [µM]	ΔTm (Nucleic Acid) [°C]
CN(C)CCCNc1ccc2ncn3c4ccccc4c(=O)c1c23	172	0.86	5.2
CCN(CC)CCNc1ccc2nc(C)n3c4ccc(O)cc4c(=O)c1c23	16	3	8.6
CCN(CC)CCNc1ccc2nc(C)n3c4ccc(OC)cc4c(=O)c1c23	9	3	8.6
CN(C)CCNc1ccc2ncn3c4ccccc4c(=O)c1c23	830	0.57	5.6
Cc1nc2ccc(NCCN(C)C)c3c(=O)c4ccccc4n1c23	323	0.46	7.1
CN(C)CCNc1ccc2ncn3c4ccc(O)cc4c(=O)c1c23	296	1	5.1
CCN(CC)CCNc1ccc2ncn3c4ccccc4c(=O)c1c23	427	1	6.4
CCN(CC)CCNc1ccc2ncn3c4cc(OC)c(OC)c(O)c4c(=O)c1c23	6	0.95	1
COc1cccc2c1C(=O)c1c(O)c3c(c(O)c1C2=O)C[C@@](O)(C(=O)CO)C[C@@H]3O[C@H]1C[C@H](N)[C@H](O)[C@H](C)O1	–	–	14.5
Cc1nc2ccc(NCCN(C)C)c3c(=O)c4cc(O)ccc4n1c23	50	0.65	9.1
CCN(CC)CCCNc1ccc2ncn3c4ccc(O)cc4c(=O)c1c23	597	0.82	8
CCN(CC)CCNc1ccc2ncn3c4c(OC)ccc(O)c4c(=O)c1c23	31	0.54	3.1
CCN(CC)CCNc1ccc2ncn3c4c(OC)cccc4c(=O)c1c23	99	1.7	5
CCN(CC)CCNc1ccc2ncn3c4ccc(O)cc4c(=O)c1c23 [C-1311]	148	0.77	4.5
CCc1nc2ccc(NCCN(C)C)c3c(=O)c4ccccc4n1c23	693	0.47	5.1
CCN(CC)CCNc1ccc2ncn3c4c(OC)ccc(OC)c4c(=O)c1c23	17	1.67	1.8
CCN(CC)CCNc1ccc2ncn3c4cc(O)ccc4c(=O)c1c23	953	2.2	5
CCN(CC)CCNc1ccc2ncn3c4ccc(OC)cc4c(=O)c1c23	1000	2.9	4.5
